# Experimental data from patent US7772241B2, “Variolin derivatives and their use as antitumor agents” (Pharma Mar S.A., priority 2001, dated 2010).
# Like-named read-outs stand apart in the source and are kept apart here.
# Columns and labels:
# PANC-1 = assay: Inhibition of cells growth by colorimetric (SRB) assay, PANC-1; conditions: for GI50 / CC50: Homo sapiens, PANC-1, 48 h; for GI50: read-out: GI50 PANC-1, SRB assay, 48 hours exposure; for CC50: read-out: LC50 PANC-1, SRB assay, 48 hours exposure; for TGI PANC-1: SRB assay, 48 hours exposure
# How it was run: (§1)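 Human tumour cells in RPMI 1640 with 10% FBS were seeded at 5×10^3 cells/well, allowed to attach for 18 h, then exposed to samples at 10 to 10^−8 μg/ml for 48 h. Growth was measured by SRB staining after TCA fixation, with absorbance read at 490 nm in triplicate wells.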
# IGROV-ET = assay: Inhibition of cells growth by colorimetric (SRB) assay, IGROV-ET; conditions: for GI50 / CC50: Homo sapiens, 48 h; for GI50: read-out: GI50 IGROV-ET, SRB assay, 48 hours exposure; for CC50: read-out: LC50 IGROV-ET, SRB assay, 48 hours exposure; for TGI IGROV-ET: SRB assay, 48 hours exposure
# How it was run: as §1
# IGROV-1 = assay: Inhibition of cells growth by colorimetric (SRB) assay, IGROV-1; conditions: for GI50 / CC50: Homo sapiens, IGROV-1, 48 h; for GI50: read-out: GI50 IGROV, SRB assay, 48 hours exposure; for CC50: read-out: LC50 IGROV, SRB assay, 48 hours exposure; for TGI IGROV: SRB assay, 48 hours exposure
# How it was run: as §1
# [1] = Inhibition of cells growth by colorimetric (SRB) assay, HMEC1; conditions: human, HMEC1 cells, 48 hours exposure
# HMEC1 = assay: as above; conditions: for GI50: Homo sapiens, HMEC-1, 48 h; for TGI H-MEC-1 / H-MEC-1 TGI: SRB assay, 48 hours exposure, in M (unit assumed)
# K-562 = assay: Inhibition of cells growth by colorimetric (SRB) assay, K-562; conditions: for GI50 / CC50: Homo sapiens, K562, 48 h; for GI50: read-out: GI50 K-562, SRB assay, 48 hours exposure; for CC50: read-out: LC50 K-562, SRB assay, 48 hours exposure; for TGI K-562: SRB assay, 48 hours exposure
# How it was run: as §1
# SK-MEL-28 = assay: Inhibition of cells growth by colorimetric (SRB) assay, SK-MEL-28; conditions: for GI50: read-out: GI50 MEL-28, SRB assay, 48 hours exposure
# How it was run: as §1
# SK-BR-3 = assay: Inhibition of cells growth by colorimetric (SRB) assay, SK-BR-3; conditions: for GI50 / CC50: Homo sapiens, SK-BR-3, 48 h; for GI50: read-out: GI50 SK-BR-3, SRB assay, 48 hours exposure; for CC50: read-out: LC50 SK-BR-3, SRB assay, 48 hours exposure; for TGI SK-BR-3: SRB assay, 48 hours exposure
# How it was run: as §1
# A-549 = assay: Inhibition of cells growth by colorimetric (SRB) assay, A-549
# How it was run: as §1
# LNCaP = assay: Inhibition of cells growth by colorimetric (SRB) assay, LNCaP; conditions: for GI50 / CC50: Homo sapiens, LNCaP, 48 h; for GI50: read-out: GI50 LN-caP, SRB assay, 48 hours exposure; for CC50: read-out: LC50 LN-caP, SRB assay, 48 hours exposure; for TGI LN-caP: SRB assay, 48 hours exposure
# How it was run: as §1
# DU-145 = assay: Inhibition of cells growth by colorimetric (SRB) assay, DU-145; conditions: for GI50: read-out: GI50 DU-145, SRB assay, 48 hours exposure
# How it was run: as §1
# LoVo = assay: Inhibition of cells growth by colorimetric (SRB) assay, LoVo; conditions: for GI50: read-out: GI50 LOVO, SRB assay, 48 hours exposure
# How it was run: as §1
# HT-29 = assay: Inhibition of cells growth by colorimetric (SRB) assay, HT-29
# How it was run: as §1
# LoVo-Dox = assay: Inhibition of cells growth by colorimetric (SRB) assay, LoVo-Dox; conditions: for GI50 / CC50: Homo sapiens, 48 h; for GI50: read-out: GI50 LOVO-DOX, SRB assay, 48 hours exposure; for CC50: read-out: LC50 LOVO-DOX, SRB assay, 48 hours exposure; for TGI LOVO-DOX: SRB assay, 48 hours exposure
# How it was run: as §1
# [2] = read-out: GI50 H-MEC-1, SRB assay, 48 hours exposure
# [3] = Homo sapiens, SK-MEL-28, 48 h, read-out: LC50 MEL-28, SRB assay, 48 hours exposure
# [4] = Homo sapiens, A549, 48 h, read-out: GI50 A-549, SRB assay, 48 hours exposure
# [5] = Homo sapiens, A549, 48 h, read-out: LC50 A-549, SRB assay, 48 hours exposure
# [6] = Homo sapiens, DU-145, 48 h, read-out: LC50 DU-145, SRB assay, 48 hours exposure
# [7] = Homo sapiens, HT-29, 48 h, read-out: LC50 HT-29, SRB assay, 48 hours exposure
# [8] = read-out: H-MEC-1 GI50, SRB assay, 48 hours exposure
# [9] = Homo sapiens, HT-29, 48 h, read-out: HT-29 GI50, SRB assay, 48 hours exposure
# [10] = Homo sapiens, HT-29, 48 h, read-out: HT-29 LC50, SRB assay, 48 hours exposure
# [11] = Homo sapiens, A549, 48 h, read-out: A-549 GI50, SRB assay, 48 hours exposure
# [12] = Homo sapiens, A549, 48 h, read-out: A-549 LC50, SRB assay, 48 hours exposure
compound,measurement,setting,value
COc1nccc(-c2c3c(OC)ccnc3n3c(N)nccc23)n1 [Compound 109],GI50,PANC-1,9.4 µM
same,GI50,IGROV-ET,7.17 µM
same,CC50,IGROV-ET,31 µM
same,TGI IGROV-ET,IGROV-ET,2.21E−05
same,GI50,IGROV-1,3.07 µM
same,CC50,IGROV-1,31 µM
same,TGI IGROV,IGROV-1,1.46E−05
same,CC50 at 48 h,"[1]; LC50 H-MEC-1, SRB assay",31 µM
same,GI50,HMEC1; [2],2.04 µM
same,TGI H-MEC-1,HMEC1,2.17E−05
same,GI50,K-562,7.6 µM
same,CC50,K-562,31 µM
same,TGI K-562,K-562,2.41E−05
same,GI50,"SK-MEL-28; Homo sapiens, SK-MEL-28, 48 h",1.26 µM
same,CC50,SK-MEL-28; [3],22.4 µM
same,TGI MEL-28,"SK-MEL-28; SRB assay, 48 hours exposure",6.64E−06
same,GI50,SK-BR-3,1.47 µM
same,CC50,SK-BR-3,31 µM
same,TGI SK-BR-3,SK-BR-3,5.40E−06
same,GI50,A-549; [4],5.49 µM
same,CC50,A-549; [5],31 µM
same,TGI A-549,"A-549; SRB assay, 48 hours exposure",2.33E−05
same,GI50,LNCaP,1.4 µM
same,CC50,LNCaP,31 µM
same,TGI LN-caP,LNCaP,4.81E−06
same,GI50,"DU-145; Homo sapiens, DU-145, 48 h",1.63 µM
same,CC50,DU-145; [6],31 µM
same,TGI DU-145,"DU-145; SRB assay, 48 hours exposure",3.10E−05
Nc1nccc(-c2c3c(F)ccnc3n3c(N)nccc23)n1 [Compound 115],GI50,PANC-1,2.05 µM
same,CC50,PANC-1,≥ 33.9 µM
same,TGI PANC-1,PANC-1,9.35E−06
same,GI50,IGROV-ET,1.47 µM
same,CC50,IGROV-ET,≥ 33.9 µM
same,TGI IGROV-ET,IGROV-ET,6.84E−06
same,GI50,IGROV-1,1.23 µM
same,CC50,IGROV-1,≥ 33.9 µM
same,TGI IGROV,IGROV-1,5.22E−06
same,CC50 at 48 h,"[1]; LC50 H-MEC-1, SRB assay",5.96 µM
same,GI50,HMEC1; [2],0.599 µM
same,TGI H-MEC-1,HMEC1,1.56E−06
same,GI50,K-562,4.47 µM
same,CC50,K-562,28.9 µM
same,TGI K-562,K-562,1.13E−05
same,GI50,"LoVo; Homo sapiens, LoVo, 48 h",0.894 µM
same,CC50,"LoVo; Homo sapiens, LoVo, 48 h, read-out: LC50 LOVO, SRB assay, 48 hours exposure",≥ 33.9 µM
same,TGI LOVO,"LoVo; SRB assay, 48 hours exposure",1.91E−06
same,GI50,"SK-MEL-28; Homo sapiens, SK-MEL-28, 48 h",1.12 µM
same,CC50,SK-MEL-28; [3],12.1 µM
same,TGI MEL-28,"SK-MEL-28; SRB assay, 48 hours exposure",4.13E−06
same,GI50,SK-BR-3,0.752 µM
same,CC50,SK-BR-3,6.23 µM
same,TGI SK-BR-3,SK-BR-3,1.69E−06
same,GI50,"HT-29; Homo sapiens, HT-29, 48 h, read-out: GI50 HT-29, SRB assay, 48 hours exposure",2.15 µM
same,CC50,HT-29; [7],≥ 33.9 µM
same,TGI HT-29,"HT-29; SRB assay, 48 hours exposure",1.31E−05
same,GI50,A-549; [4],0.748 µM
same,CC50,A-549; [5],≥ 33.9 µM
same,TGI A-549,"A-549; SRB assay, 48 hours exposure",1.97E−06
same,GI50,LoVo-Dox,1.39 µM
same,CC50,LoVo-Dox,≥ 33.9 µM
same,TGI LOVO-DOX,LoVo-Dox,5.76E−06
same,GI50,LNCaP,0.721 µM
same,CC50,LNCaP,2.34 µM
same,TGI LN-caP,LNCaP,1.30E−06
same,GI50,"DU-145; Homo sapiens, DU-145, 48 h",0.759 µM
same,CC50,DU-145; [6],10.7 µM
same,TGI DU-145,"DU-145; SRB assay, 48 hours exposure",1.79E−06
COc1ccnc2c1c(-c1ccnc(N)n1)c1ccnc(N)n12 [Compound 114],GI50,PANC-1,1.35 µM
same,CC50,PANC-1,32.5 µM
same,TGI PANC-1,PANC-1,6.18E−06
same,GI50,IGROV-ET,1.51 µM
same,CC50,IGROV-ET,25.4 µM
same,TGI IGROV-ET,IGROV-ET,3.29E−06
same,GI50,IGROV-1,0.843 µM
same,CC50,IGROV-1,15.8 µM
same,TGI IGROV,IGROV-1,1.81E−06
same,CC50 at 48 h,"[1]; LC50 H-MEC-1, SRB assay",2.65 µM
same,GI50,HMEC1; [2],0.67 µM
same,TGI H-MEC-1,HMEC1,1.33E−06
same,GI50,K-562,1.7 µM
same,CC50,K-562,16.2 µM
same,TGI K-562,K-562,2.98E−06
same,GI50,"LoVo; Homo sapiens, LoVo, 48 h",0.54 µM
same,TGI LOVO,"LoVo; SRB assay, 48 hours exposure",1.98E−06
same,CC50,"LoVo; read-out: LC50 LOVO, SRB assay, 48 hours exposure",10.3 µM
same,GI50,"SK-MEL-28; Homo sapiens, SK-MEL-28, 48 h",0.605 µM
same,TGI MEL-28,"SK-MEL-28; SRB assay, 48 hours exposure",1.20E−06
same,CC50,"SK-MEL-28; read-out: LC50 MEL-28, SRB assay, 48 hours exposure",2.4 µM
same,CC50,HT-29; [7],32.5 µM
same,TGI HT-29,"HT-29; SRB assay, 48 hours exposure",3.25E−06
same,GI50,"HT-29; read-out: GI50 HT-29, SRB assay, 48 hours exposure",1.04 µM
same,TGI A-549,"A-549; SRB assay, 48 hours exposure",1.72E−06
same,GI50,"A-549; read-out: GI50 A-549, SRB assay, 48 hours exposure",0.553 µM
same,CC50,"A-549; read-out: LC50 A-549, SRB assay, 48 hours exposure",8.23 µM
same,GI50,LoVo-Dox,0.827 µM
same,CC50,LoVo-Dox,32.5 µM
same,TGI LOVO-DOX,LoVo-Dox,2.41E−06
same,GI50,LNCaP,0.625 µM
same,CC50,LNCaP,2.35 µM
same,TGI LN-caP,LNCaP,1.21E−06
same,GI50,"DU-145; Homo sapiens, DU-145, 48 h",0.732 µM
same,TGI DU-145,"DU-145; SRB assay, 48 hours exposure",1.75E−06
same,CC50,"DU-145; read-out: LC50 DU-145, SRB assay, 48 hours exposure",6.22 µM
Cc1nccc(-c2c3cccnc3n3c(N)nccc23)n1 [Compound 75],CC50 at 48 h,"[1]; H-MEC-1 LC50, SRB assay",36.2 µM
same,GI50,HMEC1; [8],1.43 µM
same,H-MEC-1 TGI,HMEC1,8.00E−06
same,GI50,HT-29; [9],5.79 µM
same,CC50,HT-29; [10],36.2 µM
same,HT-29 TGI,"HT-29; SRB assay, 48 hours exposure",3.62E−05
same,GI50,A-549; [11],4.2 µM
same,CC50,A-549; [12],21.3 µM
same,A-549 TGI,"A-549; SRB assay, 48 hours exposure",9.45E−06
Nc1nccc2c(-c3ccncn3)c3cccnc3n12 [Compound 70],CC50 at 48 h,"[1]; H-MEC-1 LC50, SRB assay",4 µM
same,GI50,HMEC1; [8],0.119 µM
same,H-MEC-1 TGI,HMEC1,3.93E−07
same,GI50,HT-29; [9],0.0381 µM
same,CC50,HT-29; [10],38.1 µM
same,HT-29 TGI,"HT-29; SRB assay, 48 hours exposure",3.81E−06
same,GI50,A-549; [11],0.182 µM
same,CC50,A-549; [12],3.35 µM
same,A-549 TGI,"A-549; SRB assay, 48 hours exposure",5.60E−07
